Source: US20090227606A1, “Methods for Preventing or Treating Acute and Chronic Pain” (priority 2006, published 2009)
“Also recorded” adds a separate entry of the source.

What was measured:
[1] = test system: L5 spinal nerve transected mice; test: Mechanical allodynia after L5 spinal nerve transection in eGFP-GLT-1/DsRed-GLAST transgenic mice; assay type: in vivo, mouse; details: for first day on which inhibition of mechanical allodynia was evident: 10 mg/kg i.p. daily
Protocol: In addition to studies using a rat model of pain for examining the role of glutamate transporters in the therapeutic response (analgesic) of propentofylline treatment, studies were also performed in a double transgenic reporter mouse line that expressed eGFP-GLT-1/DsRed-GLAST. Use of the transgenic mouse model further defined the effect of propentofylline on glutamate transporters, GLT-1 and GLAST. The animals were injected intraperitoneally with 10 mg/kg propentofylline in sterile saline or saline vehicle alone (n=5 to 8 per group). The first injections were administered one hour prior to L5 spinal nerve transection and continued daily in the evening (between 5 and 7 PM) until day 12 post-transection. Mice received either an L5 spinal nerve transection or sham surgery on day 0. The development of mechanical allodynia was monitored on days 1, 3, 5, 7, 9 and 12 as described for rats previously. The monitoring was performed in the morning at approximately 15 hours post-propentofylline or saline injection. Mice were transcardially perfused on day 12 post-transection, spinal cords were removed, and the tissue was processed for immunohistochemistry.
Transgenic mice on a C57B1/6 background were created according to the methods previously described (Regan et al. 2006. J. Neuroscience, in press). Briefly, in order to determine where in the central nervous system GLAST is expressed, transgenic mice were created using a bacterial artificial chromosome containing the GLAST gene plus 18 kb of DNA upstream of the first exon and 60 kb downstream of the last exon. DsRed cDNA was inserted into the first exon to allow expression of DsRed instead of GLAST when the promoter is active. Similarly, in order to investigate the distribution of GLT-1, transgenic mice expressing GLT-1 with eGFP running from the promoter were also created. These two types of transgenic mice were crossed and the resultant double transgenic eGFP-GLT-1/DsRed-GLAST mice were used in the experiments at 8 to 10 weeks of age.

[2] = test system: GLT-1; test: Western blot of cultured astrocytes, GLT-1 protein; assay type: cell-based, rat
Protocol: (§1) After approximately 14 days (2 days after subplating into plates, DIV 14) astrocytes had formed a confluent monolayer. […] Phase contrast microscopy was then carried out in order to assess the morphology of cells after the various treatments. Length of astrocyte processes was quantified by measuring all processes in 2-3 phase contrast images/group by an independent observer, blinded to the treatment groups using Image J v1.34s (National Institutes of Health, Bethesda, Md.).
Cells were scraped into PBS containing a protease inhibitor cocktail (1:1000, Sigma Chemical Co., St. Louis, Mo.) and then lysed by sonication in 5 one-second pulses. The samples were stored at −80° C. until use. Total protein was determined using the Lowry method (DC assay, Bio-Rad, Hercules, Calif.). Forty micrograms of protein (diluted in sample buffer and boiled) and standard protein markers were subjected to SDS/7.5% polyacrylamide gel electrophoresis and transferred to polyvinylidene difluoride (PVDF) membranes. Nonspecific binding was blocked by incubation with 5% milk/PBS-Tween at room temperature for 1 hour followed by incubation overnight at 4° C. with rabbit anti-GLT-1 (1:500) or guinea pig anti-GLAST (1:2500). The following day, blots were washed and incubated for 1 hour at room temperature with goat anti-rabbit HRP-conjugated secondary (1:3000) or goat anti-guinea pig HRP-conjugated secondary antibody (1:5000) and visualized with enhanced chemiluminescence (ECL). Images were obtained using the Typhoon Imaging System (Amersham-GE Healthcare, Piscataway, N.J.). Finally, blots were incubated for 15 minutes in stripping buffer and reprobed with a monoclonal mouse anti-β-actin antibody (1:10,000) as a loading control. Densitometric analysis was performed using ImageQuant 5.2 (Molecular Dynamics, GE Healthcare, Piscataway, N.J.).

[3] = test system: primary cultured astrocytes; test: Astrocyte morphology and process length, phase contrast microscopy; assay type: cell-based, rat; details: 3 days or 7 days of treatment, phase contrast microscopy
Protocol: Astrocyte cultures were prepared from the cortices of neonatal rats (1-3 days old) using the Worthington Papain Dissociation System (Worthington Biochemical Corporation, Lakewood, N.J.) according to the method of Huettner and Baughman (1986. J. Neurosci. 6:3044-3060). Briefly, cortices of neonatal rats were dissected, treated with papain (20 U/ml), dissociated by trituration and plated in 75 cm^2 flasks in Dulbecco's modified Eagle's medium (DMEM) supplemented with 10% charcoal-stripped fetal bovine serum (FBS), 1% GlutaMax and 1% penicillin/streptomycin (P/S, 100 U/ml penicillin, 100 μg/ml streptomycin, P/S). Cells were fed twice weekly until they reached confluence (Day in vitro, DIV 10-12) at which point they were mechanically shaken for 1 hr on an orbital shaker to remove any remaining oligodendrocytes and microglia. Subsequently, cultures were treated with trypsin for 30 minutes at 37° C. and re-plated into 6 or 12-well dishes at a density of about 3.0×10^4 cells/cm^2. Resultant cultures were greater than 95% astrocytic as determined by GFAP immunostaining.
as §1

[4] = test system: GLAST; test: Immunocytochemistry of cultured astrocytes, GLAST staining; assay type: cell-based, rat; details: treated astrocytes
Protocol: Primary astrocyte-enriched cultures were plated onto sterile 18 mm glass coverslips. After three washes in PBS, cells were permeabilized in 5% glacial acetic acid/95% ethanol (acid-alcohol) for 10 minutes. After washing, cells were incubated in a 1% normal goat serum for 30 minutes and then overnight at 4° C. in primary mouse anti-GFAP (1:500), rabbit anti-GLT-1 (1:500) or guinea pig anti-GLAST (1:2000). The following day, cells were washed and then incubated for 2 hours at room temperature with goat anti-mouse Alexa Fluor™-555 (Invitrogen Corporation, Carlsbad, Calif.) goat anti-guinea pig Alexa Fluor™-488 (Invitrogen Corporation, Carlsbad, Calif.) or goat anti-rabbit Alexa Fluor™-488 (Invitrogen Corporation, Carlsbad, Calif.; all at 1:250). Finally, cells were post-fixed in acid-alcohol and mounted with Vectashield (Vector Labs, Burlingame, Calif.) containing 4′,6-diamidino-2-phenylindole dihydrochloride hydrate (DAPI, Sigma Chemical Co., St Louis, Mo.), in order to visualize cell nuclei. The sections were examined with a fluorescence microscope, and images were captured with a Q-Fire cooled camera (Olympus, Melville, N.Y.). Confocal microscopy was also performed using a Zeiss LSM 510 Meta confocal microscope (Carl Zeiss AG, Oberkochen, Germany). Merged color images were processed using Adobe Photoshop 7.0 (Adobe Systems, San Jose, Calif.).

[5] = test system: astrocytic activation; details: DeLeo et al. 1987; cited from earlier work
[6] = test system: cultured astrocytes; test: Reversibility of astrocyte phenotype change after 7 day washout; assay type: cell-based, rat; details: 7 days treatment (high dose), then 7 day washout in control media
Protocol: In order to ensure that the morphological effects of propentofylline on astrocytes were due to specific pharmacological effects and not due to toxicity, experiments were performed to determine if the phenotype change observed was reversible.

[7] = test system: adenosine transport; details: literature; cited from earlier work

CCCn1cnc2c1c(=O)n(CCCCC(C)=O)c(=O)n2C [propentofylline]
first day on which inhibition of mechanical allodynia was evident ([1]; 0.008 g filament): 3 days
mechanical allodynia (0.008 g and 0.02 g von Frey filaments) ([1]; 10 mg/kg intraperitoneally daily, from one hour prior to transection): significant decrease in mechanical allodynia; also recorded: robustly inhibited the development of mechanical allodynia in mice; also recorded: remained similar to the sham control mice at every time point for both filaments
first day on which inhibition of mechanical allodynia was evident ([1]; 0.02 g filament): 1 days
GLT-1 protein level, in words ([2]; 3 or 7 days, normalized to β-actin): dose-dependently increased levels of GLT-1 protein
increase in GLT-1 protein levels ([2]; 7 days, high dose): 100 fold
increase in GLT-1 protein levels ([2]; after 3 days of treatment): about 10 fold
astrocyte morphology [3]: dose-dependent shift from a flat, polygonal shape to a stellate, process-bearing shape
GLAST staining [4]: slightly increased GLAST staining
astrocytic activation [5]: attenuate astrocytic activation
reversibility of morphological change [6]: reversal was more complete in propentofylline-treated cells
adenosine transport [7]: inhibit adenosine transport
